Measurements taken from US8435939B2, “Polypeptide anti-HIV agent containing the same” (priority 2000, dated 2013).
Read-outs that look alike come from different tables or passages of the source. Where a SMILES comes first, the peptide text is derived from it. Bridges are numbered along the chain shown (N, C = ends). [ ]: non-standard residue; d: D form. 2Nal = N[C@@H](Cc1ccc2ccccc2c1)C(=O)O; Cit = NC(=O)NCCC[C@H](N)C(=O)O

Tests used:
Type in all cases: cell-based
HIV-1 (IIIB) strain = assay: Anti-HIV activity: inhibition of MT-4 cell death by HIV infection (MTT method); settings: MT-4 CD4+ T cells infected by HIV-1 (IIIB), 37° C., 5 days, MTT; average of at least three measurements; read-out: EC50 (concentration where MT-4 cell death by HIV infection is inhibited by 50%)
Experimental: (§1) HIV-1 (IIIB) strain obtained from MOLT/HIV-1 (IIIB) cell previously infected by HIV-1 was used. The polypeptide of the present invention was added to MT-4 CD4^+ T cells infected by HIV in various kinds of concentrations, and a number of living cells after culturing at 37° C. for 5 days was determined by using a 3′-(4,5-dimethylthiazol-2-yl)-2,5-diphenyltetrazolinium bromide (MTT) method. Anti-HIV activity is shown by a concentration (EC50 value), where MT-4 cell death by HIV infection is inhibited by 50%. Cytotoxicity of the peptide according to the present invention was shown by a 50% survival concentration (Test I: CC50 value) by culturing virus-uninfected MT-4 cells with the polypeptide according to the present invention in various concentrations, and determining a number of living cells by the MTT method. Moreover, a number of living cells of human peripheral blood mononuclear cells (monocyte) (PBMC) was determined by trypan blue dyeing method, and shown by a 50% survival concentration (Test II: CC50 value). Respective ratios of the CC50 value and the EC50 value were shown as a selective index (SI). Obtained values were summarized in Table 3 using the conventionally known polypeptides T134 and T140, and an anti-HIV compound: 3′-azido-2′,3′-dideoxythymidine (AZT) used as a medicine as a control anti-HIV agent.

[1] = system: virus-uninfected MT-4 cells; assay: Cytotoxicity Test I: virus-uninfected MT-4 cells, MTT method; settings: selective index, MT-4 CC50 over anti-HIV EC50
Experimental: as §1

[2] = as above; settings: virus-uninfected MT-4 cells, MTT method, read-out: CC50 (Test I), 50% survival concentration
Experimental: as §1

[3] = human, MT-4 cells (virus-uninfected)

SMILES	EC50 (HIV-1 (IIIB) strain) [nM]	other results
N=C(N)NCCC[C@H](NC(=O)[C@@H]1CSSC[C@H](NC(=O)[C@H](Cc2ccc3ccccc3c2)NC(=O)[C@H](CCCNC(=N)N)NC(=O)[C@@H](N)CCCNC(=N)N)C(=O)N[C@@H](Cc2ccc(O)cc2)C(=O)N[C@@H](CCCNC(=N)N)C(=O)N[C@@H](CCCNC(N)=O)C(=O)N[C@H](CCCCN)C(=O)N2CCC[C@H]2C(=O)N[C@@H](Cc2ccc(O)cc2)C(=O)N[C@@H](CCCNC(=N)N)C(=O)N[C@@H](CCCNC(N)=O)C(=O)N1)C(=O)O [TC14004, H-Arg-Arg-Nal-Cys-Tyr-Arg-Cit-DLys-Pro-Tyr-Arg-Cit-Cys-Arg-OH] (H-RR[2Nal]CYR[Cit][dK]PYR[Cit]CR-OH; disulfide 4-13)	16	–
C[C@@H]1NC(=O)[C@@H]2CCCN2C(=O)[C@@H](CCCCN)NC(=O)[C@H](CCCCN)NC(=O)[C@H](CCCN=C(N)N)NC(=O)[C@H](Cc2ccc(O)cc2)NC(=O)[C@@H](NC(=O)[C@H](Cc2ccc3ccccc3c2)NC(=O)[C@H](CCCN=C(N)N)NC(=O)[C@@H](N)CCCN=C(N)N)CSSC[C@@H](C(=O)N[C@@H](CCCN=C(N)N)C(=O)O)NC(=O)[C@H](CCCNC(N)=O)NC(=O)[C@H](CCCN=C(N)N)NC1=O [TA14009, H-Arg-Arg-Nal-Cys-Tyr-Arg-Lys-DLys-Pro-Ala-Arg-Cit-Cys-Arg-OH] (H-RR[2Nal]CYRK[dK]PAR[Cit]CR-OH; disulfide 4-13)	–	SI: CC50 (Test I)/EC50 [1]: >4500; CC50 [2, 3]: > 80000 nM
C[C@@H]1NC(=O)[C@H](CCCNC(=N)N)NC(=O)[C@H](Cc2ccc(O)cc2)NC(=O)[C@@H](NC(=O)[C@H](Cc2ccc3ccccc3c2)NC(=O)[C@H](CCCNC(=N)N)NC(=O)[C@@H](N)CCCNC(=N)N)CSSC[C@@H](C(=O)N[C@@H](CCCNC(=N)N)C(=O)O)NC(=O)[C@H](CCCNC(N)=O)NC(=O)[C@H](CCCNC(=N)N)NC(=O)[C@H](Cc2ccc(O)cc2)NC(=O)[C@@H]2CCCN2C(=O)[C@@H](CCCCN)NC1=O [TA14006, H-Arg-Arg-Nal-Cys-Tyr-Arg-Ala-DLys-Pro-Tyr-Arg-Cit-Cys-Arg-OH] (H-RR[2Nal]CYRA[dK]PYR[Cit]CR-OH; disulfide 4-13)	47	–
C[C@@H]1NC(=O)[C@H](Cc2ccc(O)cc2)NC(=O)[C@@H](NC(=O)[C@H](Cc2ccc3ccccc3c2)NC(=O)[C@H](CCCN=C(N)N)NC(=O)[C@@H](N)CCCN=C(N)N)CSSC[C@@H](C(=O)N[C@@H](CCCN=C(N)N)C(=O)O)NC(=O)[C@H](CCCNC(N)=O)NC(=O)[C@H](CCCN=C(N)N)NC(=O)[C@H](Cc2ccc(O)cc2)NC(=O)[C@@H]2CCCN2C(=O)[C@@H](CCCCN)NC(=O)[C@H](CCCCN)NC1=O [TA14005, H-Arg-Arg-Nal-Cys-Tyr-Ala-Lys-DLys-Pro-Tyr-Arg-Cit-Cys-Arg-OH] (H-RR[2Nal]CYAK[dK]PYR[Cit]CR-OH; disulfide 4-13)	–	SI: CC50 (Test I)/EC50 [1]: >4500; CC50 [2, 3]: > 40000 nM
C[C@@H]1NC(=O)[C@@H](CCCCN)NC(=O)[C@H](CCCCN)NC(=O)[C@H](CCCN=C(N)N)NC(=O)[C@H](Cc2ccc(O)cc2)NC(=O)[C@@H](NC(=O)[C@H](Cc2ccc3ccccc3c2)NC(=O)[C@H](CCCN=C(N)N)NC(=O)[C@@H](N)CCCN=C(N)N)CSSC[C@@H](C(=O)N[C@@H](CCCN=C(N)N)C(=O)O)NC(=O)[C@H](CCCNC(N)=O)NC(=O)[C@H](CCCN=C(N)N)NC(=O)[C@H](Cc2ccc(O)cc2)NC1=O [TA14008, H-Arg-Arg-Nal-Cys-Tyr-Arg-Lys-DLys-Ala-Tyr-Arg-Cit-Cys-Arg-OH] (H-RR[2Nal]CYRK[dK]AYR[Cit]CR-OH; disulfide 4-13)	–	SI: CC50 (Test I)/EC50 [1]: >4700; CC50 [2]: > 80000 nM
C[C@@H]1NC(=O)[C@@H]2CCCN2C(=O)[C@@H](CCCCN)NC(=O)[C@H](CCCCN)NC(=O)[C@H](CCCNC(=N)N)NC(=O)[C@H](Cc2ccc(O)cc2)NC(=O)[C@@H](NC(=O)[C@H](Cc2ccc3ccccc3c2)NC(=O)[C@H](CCCNC(=N)N)NC(=O)[C@@H](N)CCCNC(=N)N)CSSC[C@@H](C(=O)N[C@@H](CCCNC(=N)N)C(=O)O)NC(=O)[C@H](CCCNC(N)=O)NC(=O)[C@H](CCCNC(=N)N)NC1=O [TA14009, H-Arg-Arg-Nal-Cys-Tyr-Arg-Lys-DLys-Pro-Ala-Arg-Cit-Cys-Arg-OH] (H-RR[2Nal]CYRK[dK]PAR[Cit]CR-OH; disulfide 4-13)	17	–
N=C(N)NCCC[C@H](NC(=O)[C@@H]1CSSC[C@H](NC(=O)[C@H](Cc2c[nH]c3ccccc23)NC(=O)[C@H](CCCNC(=N)N)NC(=O)[C@@H](N)CCCNC(=N)N)C(=O)N[C@@H](Cc2ccc(O)cc2)C(=O)N[C@@H](CCCNC(=N)N)C(=O)N[C@@H](CCCCN)C(=O)N[C@H](CCCCN)C(=O)N2CCC[C@H]2C(=O)N[C@@H](Cc2ccc(O)cc2)C(=O)N[C@@H](CCCNC(=N)N)C(=O)N[C@@H](CCCNC(N)=O)C(=O)N1)C(=O)O [Compound T134, H-Arg-Arg-Trp-Cys-Tyr-Arg-Lys-DLys-Pro-Tyr-Arg-Cit-Cys-Arg-OH, reference compound] (H-RRWCYRK[dK]PYR[Cit]CR-OH; disulfide 4-13)	8.3	–
N=C(N)NCCC[C@H](NC(=O)[C@@H]1CSSC[C@H](NC(=O)[C@H](Cc2ccc3ccccc3c2)NC(=O)[C@H](CCCNC(=N)N)NC(=O)[C@@H](N)CCCNC(=N)N)C(=O)N[C@@H](Cc2ccc(O)cc2)C(=O)N[C@@H](CCCNC(=N)N)C(=O)N[C@@H](CCCCN)C(=O)N[C@H](CCCCN)C(=O)N2CCC[C@H]2C(=O)N[C@@H](Cc2ccc(O)cc2)C(=O)N[C@@H](CCCNC(=N)N)C(=O)N[C@@H](CCCNC(N)=O)C(=O)N1)C(=O)O [Compound T140, H-Arg-Arg-Nal-Cys-Tyr-Arg-Lys-DLys-Pro-Tyr-Arg-Cit-Cys-Arg-OH, reference compound] (H-RR[2Nal]CYRK[dK]PYR[Cit]CR-OH; disulfide 4-13)	3.3	–
C[C@@H]1NC(=O)[C@H](Cc2ccc(O)cc2)NC(=O)[C@@H](NC(=O)[C@H](Cc2ccc3ccccc3c2)NC(=O)[C@H](CCCNC(=N)N)NC(=O)[C@@H](N)CCCNC(=N)N)CSSC[C@@H](C(=O)N[C@@H](CCCNC(=N)N)C(=O)O)NC(=O)[C@H](CCCNC(N)=O)NC(=O)[C@H](CCCNC(=N)N)NC(=O)[C@H](Cc2ccc(O)cc2)NC(=O)[C@@H]2CCCN2C(=O)[C@@H](CCCCN)NC(=O)[C@H](CCCCN)NC1=O [TA14005, H-Arg-Arg-Nal-Cys-Tyr-Ala-Lys-DLys-Pro-Tyr-Arg-Cit-Cys-Arg-OH] (H-RR[2Nal]CYAK[dK]PYR[Cit]CR-OH; disulfide 4-13)	9.3	–
N=C(N)NCCC[C@H](NC(=O)[C@@H]1CSSC[C@H](NC(=O)[C@H](Cc2ccc3ccccc3c2)NC(=O)[C@H](CCCNC(=N)N)NC(=O)[C@@H](N)CCCNC(=N)N)C(=O)N[C@@H](Cc2ccc(O)cc2)C(=O)N[C@@H](CCCNC(N)=O)C(=O)N[C@@H](CCCCN)C(=O)N[C@H](CCCCN)C(=O)N2CCC[C@H]2C(=O)N[C@@H](Cc2ccc(O)cc2)C(=O)N[C@@H](CCCNC(=N)N)C(=O)N[C@@H](CCCNC(N)=O)C(=O)N1)C(=O)O [TC14003, H-Arg-Arg-Nal-Cys-Tyr-Cit-Lys-DLys-Pro-Tyr-Arg-Cit-Cys-Arg-OH] (H-RR[2Nal]CY[Cit]K[dK]PYR[Cit]CR-OH; disulfide 4-13)	2.8	–
C[C@@H]1NC(=O)[C@@H](CCCCN)NC(=O)[C@H](CCCCN)NC(=O)[C@H](CCCNC(=N)N)NC(=O)[C@H](Cc2ccc(O)cc2)NC(=O)[C@@H](NC(=O)[C@H](Cc2ccc3ccccc3c2)NC(=O)[C@H](CCCNC(=N)N)NC(=O)[C@@H](N)CCCNC(=N)N)CSSC[C@@H](C(=O)N[C@@H](CCCNC(=N)N)C(=O)O)NC(=O)[C@H](CCCNC(N)=O)NC(=O)[C@H](CCCNC(=N)N)NC(=O)[C@H](Cc2ccc(O)cc2)NC1=O [TA14008, H-Arg-Arg-Nal-Cys-Tyr-Arg-Lys-DLys-Ala-Tyr-Arg-Cit-Cys-Arg-OH] (H-RR[2Nal]CYRK[dK]AYR[Cit]CR-OH; disulfide 4-13)	17	–
N=C(N)NCCC[C@H](NC(=O)[C@@H]1CSSC[C@H](NC(=O)[C@H](Cc2ccc3ccccc3c2)NC(=O)[C@H](CCCNC(=N)N)NC(=O)[C@@H](N)CCCNC(=N)N)C(=O)N[C@@H](Cc2ccc(O)cc2)C(=O)N[C@@H](CCCNC(=N)N)C(=O)N[C@@H](CCCCN)C(=O)N[C@H](CCCCN)C(=O)N2CCC[C@H]2C(=O)N[C@@H](Cc2ccc(O)cc2)C(=O)N[C@@H](CCCNC(N)=O)C(=O)N[C@@H](CCCNC(N)=O)C(=O)N1)C(=O)O [TC14006, H-Arg-Arg-Nal-Cys-Tyr-Arg-Lys-DLys-Pro-Tyr-Cit-Cit-Cys-Arg-OH] (H-RR[2Nal]CYRK[dK]PY[Cit][Cit]CR-OH; disulfide 4-13)	15	–
C[C@H]1NC(=O)[C@H](CCCCN)NC(=O)[C@H](CCCNC(=N)N)NC(=O)[C@H](Cc2ccc(O)cc2)NC(=O)[C@@H](NC(=O)[C@H](Cc2ccc3ccccc3c2)NC(=O)[C@H](CCCNC(=N)N)NC(=O)[C@@H](N)CCCNC(=N)N)CSSC[C@@H](C(=O)N[C@@H](CCCNC(=N)N)C(=O)O)NC(=O)[C@H](CCCNC(N)=O)NC(=O)[C@H](CCCNC(=N)N)NC(=O)[C@H](Cc2ccc(O)cc2)NC(=O)[C@@H]2CCCN2C1=O [TA14007, H-Arg-Arg-Nal-Cys-Tyr-Arg-Lys-DAla-Pro-Tyr-Arg-Cit-Cys-Arg-OH] (H-RR[2Nal]CYRK[dA]PYR[Cit]CR-OH; disulfide 4-13)	16	–
